1 compound from patent US20200069702A1, “ORAL PHARMACEUTICAL COMPOSITIONS COMPRISING AN UNMICRONIZED SELECTIVE PROGESTERONE RECEPTOR AS ACTIVE AGENT” (Repros Therapeutics Inc., priority 2016, published 2020) can be followed below.

Molecules are shown by their SMILES.

In this test the test system is uterine fibroids. The test is described as follows: Phase 2 study of orally administered Formulation B in women with uterine fibroids. It is filed as in vivo, human. The text has this: After menses occurred, a second 18 week course of treatment followed.

Consider `COCC(=O)[C@@]1(OC(C)=O)CC[C@H]2[C@@H]3CCC4=CC(=O)CCC4=C3[C@@H](c3ccc(N(C)C)cc3)C[C@@]21C` [CDB-4124, 21-methoxy-17a-acetoxy-11β-(4 N, N-dimethylaminophenyl)-19-norpregna-4,9-diene-3,20-dione], for which the “reduction in fibroid size (volume) compared to baseline” value (oral 12 mg once per day, after two 18 week cycles, median, p=0.0004 vs placebo) is reported as 64.9%. For the same compound, the “subjects who achieved amenorrhea” value runs as follows: (oral 12 mg once per day, end of second 18 week course (36 weeks total active treatment)) 100%; (vaginally treated subjects (comparison)) 50%. Besides, the “improvement in Uterine Fibroid Symptom Severity Score (UFSQOL), LOCF median” value (oral 12 mg once per day, p=0.0211 vs placebo) came out at 70.9%.
